# In patent US10167299B2, “1-(3-aminopropyl) substituted cyclic amine compounds, preparation method therefor, and pharmaceutical compositions and uses thereof” (SHANGHAI INSTITUTE OF MATERIA MEDICA, CHINESE ACADEMY OF …, priority 2013, dated 2019):
# Where two headings read alike, the source gives them in different places.
# What was measured:
# [1] = rat, in vivo
# Procedure: The administration volume was 10 mL/kg and drug was formulated with DMSO/Tween 80/physiological saline (5:5:90, v/v/v). […] 2 h after dosing, the rats ate together.
# At above time points, 0.3 ml of venous blood was taken from retrobulbar venous plexus of the rat and loaded into EDTA-2K anticoagulative tube. After centrifuged at 11000 rpm for 5 mm, the plasma was separated and frozen at −20° C. in a refrigerator.
# The concentration of each compound in rat plasma was determined by LC/MS/MS.
# The pharmacokinetic parameters after administration were calculated by using non-compartment model of WinNonlin 5.3 software (Pharsight Corporation, USA).
# CCR5 = CCR5 (Homo sapiens (Human), UniProt P51681); assay: Calcium flux inhibition experiment; type: cell-based; conditions: for IC50: HEK293/CCR5-Gα16 cell line, calcium flux, read-out: CCR5 IC50; for calcium influx inhibition effect in words, versus positive control compounds: conclusion from Table 1
# CCR5 protein = assay: Thermal stability of protein test (CPM-assay); type: binding; conditions: for Tm (° C.): thermal stability of CCR5 protein with compound, CPM dye; for protein stability effect in words, versus positive control compound: conclusion from Table 2
# How it was run: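 Purified, concentrated CCR5 protein (3–5 μg) was mixed with CPM dye and held 20 min at room temperature. It was then heated from 4 to 90 °C at 1 °C/min while fluorescence (excitation 387 nm, emission 436 nm) from CPM binding to exposed free cysteines was recorded. Tm is the midpoint of the signal change.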
# CYP2C19 = CYP2C19 (Homo sapiens (Human), UniProt P33261); assay: CYP450 inhibition activity assay (Vivid kit) CYP2C19; type: in vitro ADME; conditions: CYP450 subtype (μM) 2C19 (IC50)
# hERG = hERG (Homo sapiens (Human), UniProt Q12809)
# Procedure: CHO-hERG cells which have been incubated overnight were added with sample buffer and incubated for 90 minutes at room temperature in darkness.
# The sample buffer was removed and assay buffer was added.
# The compound is added to the cell plate and incubated for 20 minutes in darkness.
# Cell plate was placed into FDSS. The fluorescence signal was recorded every second for 10 seconds. Exciting buffer was added to the cells at the 10th second and the fluorescence signal was recorded every second for 180 seconds
# CYP2D6 = CYP2D6 (Homo sapiens (Human), UniProt P10635); assay: CYP450 inhibition activity assay (Vivid kit) CYP2D6; type: in vitro ADME; conditions: CYP450 subtype (μM) 2D6 (IC50)
# CYP3A4-T = CYP3A4-T (Homo sapiens (Human), UniProt P08684); assay: CYP450 inhibition activity assay (Vivid kit) CYP3A4-T; conditions: CYP450 subtype (μM) 3A4-T (IC50)
# Procedure: (§1) VividR CYP450 Screening Kits can be used to evaluate the effects on CYP450 subtypes (CYP1A2, CYP2D6, CYP2C9, CYP2C19, CYP3A4-T and CYP3A4-M) and the substrate VividR in the kit can be metabolizd to a product which can emit strong fluorescence in an aqueous solution by specific CYP450 enzymes.
# (§2) 1. The compounds to be tested and positive compound were added to corresponding wells and DMSO was added to control wells.
# (§3) 2. CYP450 enzyme was added to the compounds to be tested, positive compound and DMSO control wells. The enzyme dilution was used to replace enzyme and added to DMSO wells as test background. The mixture was vibrated and mixed for 1 minute, and then incubated at room temperature for 20 minutes.
# (§4) 3. NADP^+ regeneration system and the substrate were added to initiate the reaction and incubated at room temperature for 60 minutes.
# CYP3A4-M = CYP3A4-M (Homo sapiens (Human), UniProt P08684); assay: CYP450 inhibition activity assay (Vivid kit) CYP3A4-M; conditions: CYP450 subtype (μM) 3A4-M (IC50)
# Procedure: as §1, §2, §3, §4
# CYP1A2 = CYP1A2 (Homo sapiens (Human), UniProt P05177); assay: CYP450 inhibition activity assay (Vivid kit) CYP1A2; type: in vitro ADME; conditions: CYP450 subtype (μM) 1A2 (IC50)
# CYP2C9 = CYP2C9 (Homo sapiens (Human), UniProt P11712); assay: CYP450 inhibition activity assay (Vivid kit) CYP2C9; type: in vitro ADME; conditions: CYP450 subtype (μM) 2C9 (IC50)
# [2] = Four days subacute toxicity test of rats; type: in vivo; conditions: SD rats; for Clinical observations, clinical pathology detection (hematology and serum biochemistry) and macroscopic morphological observation / weight gain compared with vehicle control group: gavage 4 days, 100 and 1000 mg/kg; for weight gain compared with vehicle control group: some male and female animals; for NOAEL at 4 days: both sexes, rat, in vivo, po, gavage for 4 days, read-out: No Observed Adverse Effect Level (NOAEL)
# Excerpt: After compounds 18 and 22 of the present invention were administrated to SD rats through gavage for 4 consecutive days, the toxic reaction was preliminarily assessed to confirm the possible target organ of toxic reaction.
# One vehicle control group was set. Each group contained four rats including two male rats and two female rats. During the experiment stage, the animals were daily clinically observated. The body weight was regularly measured. On the 5th day, all animals were subject to pathological examination and gross anatomy.
# CYP2C19, sequence (P33261 whole entry): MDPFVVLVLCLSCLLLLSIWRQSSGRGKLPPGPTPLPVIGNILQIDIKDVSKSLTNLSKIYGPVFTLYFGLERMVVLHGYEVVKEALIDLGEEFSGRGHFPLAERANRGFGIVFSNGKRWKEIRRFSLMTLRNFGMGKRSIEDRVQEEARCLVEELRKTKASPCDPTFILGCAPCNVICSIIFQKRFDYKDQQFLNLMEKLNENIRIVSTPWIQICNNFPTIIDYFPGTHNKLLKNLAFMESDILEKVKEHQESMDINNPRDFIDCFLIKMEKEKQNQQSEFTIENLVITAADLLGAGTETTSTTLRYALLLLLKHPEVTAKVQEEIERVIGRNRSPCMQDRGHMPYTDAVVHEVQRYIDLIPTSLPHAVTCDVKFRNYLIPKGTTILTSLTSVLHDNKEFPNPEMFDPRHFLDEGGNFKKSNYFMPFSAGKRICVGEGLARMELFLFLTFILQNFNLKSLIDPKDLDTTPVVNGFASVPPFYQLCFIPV
# CYP2D6, sequence (P10635 whole entry): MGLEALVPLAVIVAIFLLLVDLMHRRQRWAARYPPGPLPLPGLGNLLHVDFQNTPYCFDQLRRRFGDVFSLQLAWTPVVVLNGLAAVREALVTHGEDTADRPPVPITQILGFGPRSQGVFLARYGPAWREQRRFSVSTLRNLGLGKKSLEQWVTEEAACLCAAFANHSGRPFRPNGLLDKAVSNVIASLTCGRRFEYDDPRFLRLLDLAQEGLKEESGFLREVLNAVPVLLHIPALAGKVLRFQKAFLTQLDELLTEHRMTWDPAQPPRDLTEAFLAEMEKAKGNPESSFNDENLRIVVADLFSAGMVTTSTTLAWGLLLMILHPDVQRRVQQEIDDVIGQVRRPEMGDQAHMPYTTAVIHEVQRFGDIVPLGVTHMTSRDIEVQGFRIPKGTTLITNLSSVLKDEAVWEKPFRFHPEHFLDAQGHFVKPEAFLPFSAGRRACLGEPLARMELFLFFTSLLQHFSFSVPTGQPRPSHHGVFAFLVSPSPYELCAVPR
# CCR5, sequence (P51681 whole entry): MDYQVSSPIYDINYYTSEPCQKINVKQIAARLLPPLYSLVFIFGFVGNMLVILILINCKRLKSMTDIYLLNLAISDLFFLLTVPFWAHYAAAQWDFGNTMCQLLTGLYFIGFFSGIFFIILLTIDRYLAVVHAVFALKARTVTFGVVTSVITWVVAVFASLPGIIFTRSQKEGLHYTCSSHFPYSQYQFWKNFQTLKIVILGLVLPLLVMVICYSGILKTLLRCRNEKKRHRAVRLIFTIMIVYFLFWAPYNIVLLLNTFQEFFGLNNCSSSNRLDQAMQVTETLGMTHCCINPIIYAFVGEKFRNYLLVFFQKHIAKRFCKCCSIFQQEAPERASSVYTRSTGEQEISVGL
# hERG, sequence (Q12809 whole entry): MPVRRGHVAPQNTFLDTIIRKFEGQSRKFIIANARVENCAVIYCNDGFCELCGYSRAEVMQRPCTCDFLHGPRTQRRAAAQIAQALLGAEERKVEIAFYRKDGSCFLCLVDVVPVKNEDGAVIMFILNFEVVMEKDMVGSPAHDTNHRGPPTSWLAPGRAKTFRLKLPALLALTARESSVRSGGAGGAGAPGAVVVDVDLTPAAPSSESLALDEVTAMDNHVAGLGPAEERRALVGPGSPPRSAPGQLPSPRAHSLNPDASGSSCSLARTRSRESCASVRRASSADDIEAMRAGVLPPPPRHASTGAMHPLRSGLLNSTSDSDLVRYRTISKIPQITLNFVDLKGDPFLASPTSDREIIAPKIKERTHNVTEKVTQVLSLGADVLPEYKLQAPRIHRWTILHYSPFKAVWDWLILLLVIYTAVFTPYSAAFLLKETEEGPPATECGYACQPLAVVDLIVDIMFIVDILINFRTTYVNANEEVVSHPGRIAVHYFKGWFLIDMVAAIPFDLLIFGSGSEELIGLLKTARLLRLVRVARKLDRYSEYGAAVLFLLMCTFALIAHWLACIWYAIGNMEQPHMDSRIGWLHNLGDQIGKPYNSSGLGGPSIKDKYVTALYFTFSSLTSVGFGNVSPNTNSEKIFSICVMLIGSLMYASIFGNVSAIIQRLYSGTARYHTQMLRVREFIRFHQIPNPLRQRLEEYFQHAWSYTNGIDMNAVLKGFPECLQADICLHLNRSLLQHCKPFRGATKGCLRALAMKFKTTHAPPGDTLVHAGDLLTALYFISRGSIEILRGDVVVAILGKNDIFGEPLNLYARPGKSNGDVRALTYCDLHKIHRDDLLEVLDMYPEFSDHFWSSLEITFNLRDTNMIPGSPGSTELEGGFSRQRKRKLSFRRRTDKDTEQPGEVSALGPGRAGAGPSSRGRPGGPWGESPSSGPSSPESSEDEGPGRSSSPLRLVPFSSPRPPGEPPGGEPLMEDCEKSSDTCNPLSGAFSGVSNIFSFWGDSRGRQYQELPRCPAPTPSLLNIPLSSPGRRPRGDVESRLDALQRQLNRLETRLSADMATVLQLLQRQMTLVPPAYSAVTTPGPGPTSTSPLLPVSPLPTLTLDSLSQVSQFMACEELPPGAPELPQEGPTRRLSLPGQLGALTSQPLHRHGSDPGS
# CYP3A4-M, sequence (P08684 whole entry): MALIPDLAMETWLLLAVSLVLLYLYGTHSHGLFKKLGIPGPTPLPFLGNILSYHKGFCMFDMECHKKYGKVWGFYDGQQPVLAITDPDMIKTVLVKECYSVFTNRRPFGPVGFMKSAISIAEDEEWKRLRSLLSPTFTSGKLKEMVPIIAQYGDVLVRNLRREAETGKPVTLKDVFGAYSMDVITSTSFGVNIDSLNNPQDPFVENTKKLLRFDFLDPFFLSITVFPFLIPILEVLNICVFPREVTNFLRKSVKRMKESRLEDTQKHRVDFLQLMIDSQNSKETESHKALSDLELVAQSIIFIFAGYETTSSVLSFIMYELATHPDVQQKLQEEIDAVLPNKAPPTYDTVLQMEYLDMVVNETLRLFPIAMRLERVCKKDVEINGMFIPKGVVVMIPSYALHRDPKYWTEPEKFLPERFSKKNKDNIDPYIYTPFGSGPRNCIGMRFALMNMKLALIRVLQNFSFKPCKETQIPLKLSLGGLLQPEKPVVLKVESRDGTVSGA
# CYP3A4-T, sequence (P08684 whole entry): as above
# CYP2C9, sequence (P11712 whole entry): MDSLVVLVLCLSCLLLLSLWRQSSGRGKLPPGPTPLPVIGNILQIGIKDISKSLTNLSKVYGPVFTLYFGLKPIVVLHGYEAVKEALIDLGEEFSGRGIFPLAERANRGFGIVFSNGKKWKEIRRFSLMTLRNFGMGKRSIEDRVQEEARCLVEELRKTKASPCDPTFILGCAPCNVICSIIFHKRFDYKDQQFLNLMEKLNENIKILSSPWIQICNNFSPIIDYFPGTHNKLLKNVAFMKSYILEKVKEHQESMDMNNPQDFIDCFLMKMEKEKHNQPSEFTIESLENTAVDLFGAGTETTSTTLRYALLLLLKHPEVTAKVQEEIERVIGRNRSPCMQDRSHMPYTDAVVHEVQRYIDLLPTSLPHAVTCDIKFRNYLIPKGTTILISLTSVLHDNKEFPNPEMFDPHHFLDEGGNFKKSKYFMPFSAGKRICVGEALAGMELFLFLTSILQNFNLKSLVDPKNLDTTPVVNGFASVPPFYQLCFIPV
# CYP1A2, sequence (P05177 whole entry): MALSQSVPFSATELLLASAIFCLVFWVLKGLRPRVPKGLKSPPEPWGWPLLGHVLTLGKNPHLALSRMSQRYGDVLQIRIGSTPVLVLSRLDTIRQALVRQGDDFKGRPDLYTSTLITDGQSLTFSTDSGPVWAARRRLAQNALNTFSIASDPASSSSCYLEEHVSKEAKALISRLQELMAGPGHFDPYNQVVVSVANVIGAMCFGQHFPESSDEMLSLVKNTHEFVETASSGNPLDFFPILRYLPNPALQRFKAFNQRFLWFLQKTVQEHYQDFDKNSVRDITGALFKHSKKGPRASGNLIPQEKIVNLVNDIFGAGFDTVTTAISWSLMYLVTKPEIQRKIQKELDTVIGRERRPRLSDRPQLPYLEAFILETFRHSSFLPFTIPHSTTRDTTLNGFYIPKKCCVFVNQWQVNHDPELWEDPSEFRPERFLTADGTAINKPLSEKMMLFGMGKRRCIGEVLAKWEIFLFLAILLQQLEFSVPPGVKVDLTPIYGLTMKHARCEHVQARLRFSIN
Compound,"CLz ([1]; male, 10 mg/kg)","AUC0-t ng/mL * h ([1]; male, po, 20 mg/kg)",IC50 (CCR5),"calcium influx inhibition effect in words, versus positive control compounds (CCR5)",Tm (° C.) (CCR5 protein),IC50 (CYP2C19),IC50 (hERG; human),IC50 (CYP2D6),IC50 (CYP3A4-T),IC50 (CYP3A4-M),IC50 (CYP1A2),"protein stability effect in words, versus positive control compound (CCR5 protein)",IC50 (CYP2C9),"Clinical observations, clinical pathology detection (hematology and serum biochemistry) and macroscopic morphological observation [2]",weight gain compared with vehicle control group [2],NOAEL at 4 days [2],"hERG inhibition activity in words, versus positive control compounds (hERG)","AUC0-t ng/mL * h ([1]; male, 10 mg/kg)",CLz ([1]; 10 mg/kg),IC50 (hERG)
"Cc1nnc(C(C)C)n1C1CC2CCC(C1)N2CC[C@H](NC(=O)C1CCC(F)(F)CC1)c1cccs1 (stereo partly drawn) [Compound 14, 4,4-difluoro-N-[(1S)-3-[exo-3-(3-isopropyl-5-methyl-4H-1,2,4-triazol-4-yl)-8-azabicyclo[3.2.1]octane-8-yl]-1-(thiophen-2-yl)propyl]cyclohexane-1-carboxamide]",23.7 mL/min/kg,1108 ng·h/mL,0.00233 µM,better than the positive control compounds,68.10 °C,–,–,–,–,–,–,–,–,–,–,–,–,–,–,–
Cc1nnc(C(C)C)n1C1CC2CCC(C1)N2CC[C@H](NC(=O)C1CCCCC1)c1cccs1 (some centres unmarked) [Compound 16],32.7 mL/min/kg,1512.3 ng·h/mL,0.00223 µM,better than the positive control compounds,71.32 °C,> 25 µM,3.02 µM,15.1 µM,21.7 µM,12.3 µM,> 25 µM,comparable with the positive control compound,> 25 µM,–,–,–,–,–,–,–
"Cc1nnc(C(C)C)n1C1CCN(CC[C@H](NC(=O)C2CCCC2)c2cccs2)CC1 [Compound 17, N-[(1S)-3-[4-(3-isopropyl-5-methyl-4H-1,2,4-triazol-4-yl)-piperidin-1-yl]-1-(thiophen-2-yl)propyl]cyclopentane-1-carboxamide]",–,–,0.00255 µM,better than the positive control compounds,66.97 °C,> 25 µM,–,> 25 µM,> 25 µM,> 25 µM,> 25 µM,–,> 25 µM,–,–,–,–,–,–,–
"Cc1nnc(C(C)C)n1C1CC2CCC(C1)N2CC[C@H](NC(=O)C1CCCC1)c1cccs1 (stereo partly drawn) [Compound 18, N-[(1S)-3-[exo-3-(3-isopropyl-5-methyl-4H-1,2,4-triazol-4-yl)-8-azabicyclo[3.2.1]octane-8-yl]-1-(thiophen-2-yl)propyl]cyclopentane-1-carboxamide]",104 mL/min/kg,2801.1 ng·h/mL,0.00373 µM,better than the positive control compounds,71.73 °C,> 25 µM,–,16.8 µM,> 25 µM,> 25 µM,> 25 µM,comparable with the positive control compound,> 25 µM,no significant drug-related changes,increased slowly or exhibited negative growth,1000 mg/kg,–,–,–,–
"Cc1nnc(C(C)C)n1C1CC2CCC(C1)N2CC[C@H](NC(=O)C1CCC(F)(F)CC1)c1ccsc1 (stereo partly drawn) [Compound 22, 4,4-difluoro-N-[(1S)-3-[exo-3-(3-isopropyl-5-methyl-4H-1,2,4-triazol-4-yl)-8-azabicyclo[3.2.1]octane-8-yl]-1-(thiophen-3-yl)propyl]cyclohexane-1-carboxamide]",40 mL/min/kg,1206 ng·h/mL,0.00105 µM,better than the positive control compounds,68.21 °C,> 25 µM,–,> 25 µM,> 25 µM,> 25 µM,> 25 µM,–,> 25 µM,no significant drug-related changes,increased slowly or exhibited negative growth,1000 mg/kg,better that those of positive control compounds,–,–,–
"Cc1ccc([C@H](CCN2C3CCC2CC(n2c(C)nnc2C(C)C)C3)NC(=O)C2CCC(F)(F)CC2)s1 (stereo partly drawn) [Compound 29, 4,4-difluoro-N-[(1S)-3-[exo-3-(3-isopropyl-5-methyl-4H-1,2,4-triazol-4-yl)-8-azabicyclo[3.2.1]octane-8-yl]-1-(5-methylthiophen-2-yl)propyl]cyclohexane-1-carboxamide]",–,1870.7 ng·h/mL,–,–,–,> 25 µM,–,> 25 µM,23.4 µM,10.9 µM,> 25 µM,–,> 25 µM,–,–,–,better that those of positive control compounds,2330.2 ng·h/mL,71.5 mL/min/kg,8.44 µM
